Source: patent US8808743B2, “Benzonatate compositions and methods of use” (priority 2010, dated 2014)

Assay: Simulated gastrointestinal dissolution testing (FloVitro apparatus, USP simulated gastric and intestinal fluids)
Type: physicochemical
Settings: 100 mg dose
Method: The dissolution test used procedures devised by DOW Chemical using their proprietary FloVitro™ dissolution apparatus described in U.S. Pat. No. 6,799,123B2 and in the publication titled “FloVitro™ Technology” published online at:
The system used two different media that were combined during the process. The fluid flow rates were:
Simulated gastric fluid=7.7 ml/min
Simulated intestinal fluid=13.1 ml/mi
Total flow through analyzer=20.8 ml/min
To Cell 1: USP simulated gastric fluid (no pepsin)
To Cell 2: USP simulated intestinal fluid (pH 6.8) (SIF)
The samples tested were: • a) 100 mg dose neat benzonatate • b) 220.48 mg of IRP69H resinate: 87.97 mg benzonatate dose • c) 225.15 mg of IRP64H resinate: 102.21 mg benzonatate dose a) 100 mg Neat Benzonatate

Concentration of Homolog in Effluent Total (120 min): 18.66 mg/L
Concentration of Homolog in Effluent n = 3 (120 min): 0.05 mg/L
Concentration of Homolog in Effluent n = 4 (120 min): 0.20 mg/L
Concentration of Homolog in Effluent n = 5 (120 min): 0.53 mg/L
Concentration of Homolog in Effluent n = 6 (120 min): 1.18 mg/L
Concentration of Homolog in Effluent n = 7 (120 min): 1.99 mg/L
Concentration of Homolog in Effluent n = 8 (120 min): 2.67 mg/L
Concentration of Homolog in Effluent n = 9 (120 min): 3.01 mg/L
Concentration of Homolog in Effluent n = 10 (120 min): 2.84 mg/L
Concentration of Homolog in Effluent n = 11 (120 min): 2.44 mg/L
Concentration of Homolog in Effluent n = 12 (120 min): 1.73 mg/L
Concentration of Homolog in Effluent n = 13 (120 min): 1.13 mg/L
Concentration of Homolog in Effluent n = 14 (120 min): 0.59 mg/L
Concentration of Homolog in Effluent n = 15 (120 min): 0.31 mg/L
Concentration of Homolog in Effluent n = 16 (120 min): 0.00 mg/L
Concentration of Homolog in Effluent n = 17 (120 min): 0.00 mg/L
Cumul. (cumulative release in effluent) (120 min): 81.10 mg
Concentration of Homolog in Effluent Total (180 min): 9.68 mg/L
Concentration of Homolog in Effluent n = 3 (180 min): 0.00 mg/L
Concentration of Homolog in Effluent n = 4 (180 min): 0.10 mg/L
Concentration of Homolog in Effluent n = 5 (180 min): 0.29 mg/L
Concentration of Homolog in Effluent n = 6 (180 min): 0.61 mg/L
Concentration of Homolog in Effluent n = 7 (180 min): 1.04 mg/L
Concentration of Homolog in Effluent n = 8 (180 min): 1.41 mg/L
Concentration of Homolog in Effluent n = 9 (180 min): 1.57 mg/L
Concentration of Homolog in Effluent n = 10 (180 min): 1.51 mg/L
Concentration of Homolog in Effluent n = 11 (180 min): 1.26 mg/L
Concentration of Homolog in Effluent n = 12 (180 min): 0.90 mg/L
Concentration of Homolog in Effluent n = 13 (180 min): 0.57 mg/L
Concentration of Homolog in Effluent n = 14 (180 min): 0.30 mg/L
Concentration of Homolog in Effluent n = 15 (180 min): 0.11 mg/L
Concentration of Homolog in Effluent n = 16 (180 min): 0.00 mg/L
Concentration of Homolog in Effluent n = 17 (180 min): 0.00 mg/L
Cumul. (cumulative release in effluent) (180 min): 90.57 mg
Concentration of Homolog in Effluent Total (240 min): 5.50 mg/L
Concentration of Homolog in Effluent n = 3 (240 min): 0.00 mg/L
Concentration of Homolog in Effluent n = 4 (240 min): 0.06 mg/L
Concentration of Homolog in Effluent n = 5 (240 min): 0.16 mg/L
Concentration of Homolog in Effluent n = 6 (240 min): 0.36 mg/L
Concentration of Homolog in Effluent n = 7 (240 min): 0.60 mg/L
Concentration of Homolog in Effluent n = 8 (240 min): 0.78 mg/L
Concentration of Homolog in Effluent n = 9 (240 min): 0.89 mg/L
Concentration of Homolog in Effluent n = 10 (240 min): 0.84 mg/L
Concentration of Homolog in Effluent n = 11 (240 min): 0.70 mg/L
Concentration of Homolog in Effluent n = 12 (240 min): 0.49 mg/L
Concentration of Homolog in Effluent n = 13 (240 min): 0.36 mg/L
Concentration of Homolog in Effluent n = 14 (240 min): 0.17 mg/L
Concentration of Homolog in Effluent n = 15 (240 min): 0.09 mg/L
Concentration of Homolog in Effluent n = 16 (240 min): 0.00 mg/L
Concentration of Homolog in Effluent n = 17 (240 min): 0.00 mg/L
Cumul. (cumulative release in effluent) (240 min): 95.70 mg
Concentration of Homolog in Effluent Total (300 min): 2.73 mg/L
Concentration of Homolog in Effluent n = 3 (300 min): 0.00 mg/L
Concentration of Homolog in Effluent n = 4 (300 min): 0.00 mg/L
Concentration of Homolog in Effluent n = 5 (300 min): 0.09 mg/L
Concentration of Homolog in Effluent n = 6 (300 min): 0.18 mg/L
Concentration of Homolog in Effluent n = 7 (300 min): 0.30 mg/L
Concentration of Homolog in Effluent n = 8 (300 min): 0.41 mg/L
Concentration of Homolog in Effluent n = 9 (300 min): 0.45 mg/L
Concentration of Homolog in Effluent n = 10 (300 min): 0.42 mg/L
Concentration of Homolog in Effluent n = 11 (300 min): 0.39 mg/L
Concentration of Homolog in Effluent n = 12 (300 min): 0.25 mg/L
Concentration of Homolog in Effluent n = 13 (300 min): 0.15 mg/L
Concentration of Homolog in Effluent n = 14 (300 min): 0.09 mg/L
Concentration of Homolog in Effluent n = 15 (300 min): 0.00 mg/L
Concentration of Homolog in Effluent n = 16 (300 min): 0.00 mg/L
Concentration of Homolog in Effluent n = 17 (300 min): 0.00 mg/L
Cumul. (cumulative release in effluent) (300 min): 98.15 mg
Concentration of Homolog in Effluent Total (360 min): 1.20 mg/L
Concentration of Homolog in Effluent n = 3 (360 min): 0.00 mg/L
Concentration of Homolog in Effluent n = 4 (360 min): 0.00 mg/L
Concentration of Homolog in Effluent n = 5 (360 min): 0.05 mg/L
Concentration of Homolog in Effluent n = 6 (360 min): 0.11 mg/L
Concentration of Homolog in Effluent n = 7 (360 min): 0.15 mg/L
Concentration of Homolog in Effluent n = 8 (360 min): 0.19 mg/L
Concentration of Homolog in Effluent n = 9 (360 min): 0.23 mg/L
Concentration of Homolog in Effluent n = 10 (360 min): 0.20 mg/L
Concentration of Homolog in Effluent n = 11 (360 min): 0.17 mg/L
Concentration of Homolog in Effluent n = 12 (360 min): 0.10 mg/L
Concentration of Homolog in Effluent n = 13 (360 min): 0.00 mg/L
Concentration of Homolog in Effluent n = 14 (360 min): 0.00 mg/L
Concentration of Homolog in Effluent n = 15 (360 min): 0.00 mg/L
Concentration of Homolog in Effluent n = 16 (360 min): 0.00 mg/L
Concentration of Homolog in Effluent n = 17 (360 min): 0.00 mg/L
Cumul. (cumulative release in effluent) (360 min): 99.32 mg
Concentration of Homolog in Effluent Total (420 min): 0.67 mg/L
Concentration of Homolog in Effluent n = 3 (420 min): 0.00 mg/L
Concentration of Homolog in Effluent n = 4 (420 min): 0.00 mg/L
Concentration of Homolog in Effluent n = 5 (420 min): 0.00 mg/L
Concentration of Homolog in Effluent n = 6 (420 min): 0.06 mg/L
Concentration of Homolog in Effluent n = 7 (420 min): 0.08 mg/L
Concentration of Homolog in Effluent n = 8 (420 min): 0.11 mg/L
Concentration of Homolog in Effluent n = 9 (420 min): 0.12 mg/L
Concentration of Homolog in Effluent n = 10 (420 min): 0.11 mg/L
Concentration of Homolog in Effluent n = 11 (420 min): 0.09 mg/L
Concentration of Homolog in Effluent n = 12 (420 min): 0.10 mg/L
Concentration of Homolog in Effluent n = 13 (420 min): 0.00 mg/L
Concentration of Homolog in Effluent n = 14 (420 min): 0.00 mg/L
Concentration of Homolog in Effluent n = 15 (420 min): 0.00 mg/L
Concentration of Homolog in Effluent n = 16 (420 min): 0.00 mg/L
Concentration of Homolog in Effluent n = 17 (420 min): 0.00 mg/L
Cumul. (cumulative release in effluent) (420 min): 99.74 mg
Concentration of Homolog in Effluent Total (480 min): 0.00 mg/L
Concentration of Homolog in Effluent n = 3 (480 min): 0.00 mg/L
Concentration of Homolog in Effluent n = 4 (480 min): 0.00 mg/L
Concentration of Homolog in Effluent n = 5 (480 min): 0.00 mg/L
Concentration of Homolog in Effluent n = 6 (480 min): 0.00 mg/L
Concentration of Homolog in Effluent n = 7 (480 min): 0.00 mg/L
Concentration of Homolog in Effluent n = 8 (480 min): 0.00 mg/L
Concentration of Homolog in Effluent n = 9 (480 min): 0.00 mg/L
Concentration of Homolog in Effluent n = 10 (480 min): 0.00 mg/L
Concentration of Homolog in Effluent n = 11 (480 min): 0.00 mg/L
Concentration of Homolog in Effluent n = 12 (480 min): 0.00 mg/L
Concentration of Homolog in Effluent n = 13 (480 min): 0.00 mg/L
Concentration of Homolog in Effluent n = 14 (480 min): 0.00 mg/L
Concentration of Homolog in Effluent n = 15 (480 min): 0.00 mg/L
Concentration of Homolog in Effluent n = 16 (480 min): 0.00 mg/L
Concentration of Homolog in Effluent n = 17 (480 min): 0.00 mg/L
Compound: CCCCNc1ccc(C(=O)OCCOCCOCCOCCOCCOCCOCCOCCOCCOC)cc1 [BENZ, benzonatate]
